Data: BindingDB's records for doi:10.1111/cbdd.12580 (Sichuan University, 2015)

Assays:
[1] = target: Carboxylic ester hydrolase (Rattus norvegicus, UniProt Q9JKC1); assay: Modified Ellman Assay
Description: (§1) Then, 5,5'-dithiobis-2-nitrobenzoic acid (DTNB, 0.2%, 30 μL) (J&K Scientific) was added.

Acetylcholinesterase = target: T1, Acetylcholinesterase (Rattus norvegicus, UniProt P37136); assay: Modified Ellman Assay
T1 sequence (P37136 whole entry): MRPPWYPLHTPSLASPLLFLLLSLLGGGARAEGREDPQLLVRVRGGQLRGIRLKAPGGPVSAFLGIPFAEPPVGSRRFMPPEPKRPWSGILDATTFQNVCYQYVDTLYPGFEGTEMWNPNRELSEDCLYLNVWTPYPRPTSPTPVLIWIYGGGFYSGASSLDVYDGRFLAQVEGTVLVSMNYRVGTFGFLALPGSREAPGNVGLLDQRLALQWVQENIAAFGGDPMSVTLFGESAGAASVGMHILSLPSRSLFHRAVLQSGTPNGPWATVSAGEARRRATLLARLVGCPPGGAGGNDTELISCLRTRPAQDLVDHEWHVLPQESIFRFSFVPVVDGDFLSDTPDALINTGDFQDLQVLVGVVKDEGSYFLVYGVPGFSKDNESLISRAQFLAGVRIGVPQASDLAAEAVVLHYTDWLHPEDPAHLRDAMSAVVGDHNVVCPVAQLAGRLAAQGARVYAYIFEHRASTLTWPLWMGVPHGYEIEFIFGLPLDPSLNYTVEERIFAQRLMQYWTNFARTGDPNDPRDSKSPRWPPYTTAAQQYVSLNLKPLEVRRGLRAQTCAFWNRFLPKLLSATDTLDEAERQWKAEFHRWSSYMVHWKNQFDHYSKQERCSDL
Description: as §1

Carboxylic ester hydrolase, sequence (Q9JKC1 whole entry): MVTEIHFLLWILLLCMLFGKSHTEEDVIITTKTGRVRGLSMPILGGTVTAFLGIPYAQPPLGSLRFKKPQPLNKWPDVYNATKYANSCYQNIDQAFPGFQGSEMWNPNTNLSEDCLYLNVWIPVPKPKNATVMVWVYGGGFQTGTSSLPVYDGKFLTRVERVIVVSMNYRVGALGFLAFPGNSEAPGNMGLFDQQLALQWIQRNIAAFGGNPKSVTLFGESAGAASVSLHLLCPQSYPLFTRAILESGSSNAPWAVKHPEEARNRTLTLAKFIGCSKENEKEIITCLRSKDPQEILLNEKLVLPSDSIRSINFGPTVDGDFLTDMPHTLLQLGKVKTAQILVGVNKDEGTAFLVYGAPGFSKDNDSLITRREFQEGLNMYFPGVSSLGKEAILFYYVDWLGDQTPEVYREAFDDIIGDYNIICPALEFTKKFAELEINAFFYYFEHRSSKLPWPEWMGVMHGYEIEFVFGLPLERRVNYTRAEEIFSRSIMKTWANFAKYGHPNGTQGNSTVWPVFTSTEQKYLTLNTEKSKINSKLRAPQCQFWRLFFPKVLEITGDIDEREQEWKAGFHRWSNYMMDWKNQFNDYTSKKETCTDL

SMILES | IC50 [1] [µM] | IC50 (Acetylcholinesterase) [µM]
O=C(Oc1ccc(-c2cc(=O)c3c(O)c(O)c(O)cc3o2)cc1)N1CCC(Cc2ccccc2)CC1 [4-(Phenylmethyl)-1-piperidinecarboxylic acid-4-(5,6,7-trihydroxy-4-oxo-4H-1-benzopyran-2-yl)phenyl ester (7h)] | 35 | 62.2
O=C(Oc1ccc(-c2cc(=O)c3c(O)c(O)c(O)cc3o2)cc1)N1CCCCC1 [1-Piperidinecarboxylic acid-4-(5,6,7-trihydroxy-4-oxo-4H-1-benzopyran-2-yl)phenyl ester (7g)] | > 100 | 12.6
CCN(C)C(=O)Oc1ccc(-c2cc(=O)c3c(O)c(O)c(O)cc3o2)cc1 [N-ethyl-N-methylcarbamic acid-4-(5,6,7-trihydroxy-4-oxo-4H-1-benzopyran-2-yl)phenyl ester (7d)] | 30.5 | 2.7
O=C(Oc1ccc(-c2cc(=O)c3c(O)c(O)c(O)cc3o2)cc1)N1CCOCC1 [4-Morpholinecarboxylic acid-4-(5,6,7-trihydroxy-4-oxo-4H-1-benzopyran-2-yl)phenyl ester (7f)] | > 100 | 28.5
CC(C)N(C(=O)Oc1ccc(-c2cc(=O)c3c(O)c(O)c(O)cc3o2)cc1)C(C)C [N,N-bis(1-methylethyl)carbamic acid-4-(5,6,7-trihydroxy-4-oxo-4H-1-benzopyran-2-yl)phenyl ester (7c)] | 42 | 4
CCN(CC)C(=O)Oc1ccc(-c2cc(=O)c3c(OC(C)=O)c(OC(C)=O)c(OC(C)=O)cc3o2)cc1 [N,N-diethylcarbamic acid-4-[5,6,7-tris(acetyloxy)-4-oxo-4H-1-benzopyran-2-yl]phenyl ester (7k)] | 50.3 | 1.5
CN(C)C(=O)Oc1ccc(-c2cc(=O)c3c(O)c(O)c(O)cc3o2)cc1 [N,N-dimethylcarbamic acid-4-(5,6,7-trihydroxy-4-oxo-4H-1-benzopyran-2-yl)phenyl ester (7a)] | 32 | 6.3
CCN(CC)C(=O)Oc1ccc(-c2cc(=O)c3c(O)c(OC)c(OC)cc3o2)cc1 [N,N-diethylcarbamic acid-4-(5-hydroxy-6,7-dimethoxy-4-oxo-4H-1-benzopyran-2-yl)phenyl ester (7j)] | 22.6 | –
CCN(CC)C(=O)Oc1ccc(-c2cc(=O)c3c(O)c(OC(C)=O)c(OC(C)=O)cc3o2)cc1 [N,N-diethylcarbamic acid-4-[6,7-bis(acetyloxy)-5-hydroxy-4-oxo-4H-1-benzopyran-2-yl]phenyl ester (7l)] | 62.1 | 2
O=c1cc(-c2ccc(O)cc2)oc2cc(O)c(O)c(O)c12 [5,6,7-trihydroxy-2-(4-hydroxyphenyl)-4H-chromen-4-one] | > 100 | > 100
O=C(Oc1ccc(-c2cc(=O)c3c(O)c(O)c(O)cc3o2)cc1)N1CCCC1 [1-Pyrrolidinecarboxylic acid-4-(5,6,7-trihydroxy-4-oxo-4H-1-benzopyran-2-yl)phenyl ester (7e)] | > 100 | 40.7
CCN(CC)C(=O)Oc1ccc(-c2cc(=O)c3c(OC)c(OC)c(OC)cc3o2)cc1 [N,N-diethylcarbamic acid-4-(5,6,7-trimethoxy-4-oxo-4H-1-benzopyran-2-yl)phenyl ester (7i)] | 8.2 | –
CCN(CC)C(=O)Oc1ccc(-c2cc(=O)c3c(O)c(O)c(O)cc3o2)cc1 [N,N-diethylcarbamic acid-4-(5,6,7-trihydroxy-4-oxo-4H-1-benzopyran-2-yl)phenyl ester (7b)] | 22.1 | 1.2
